Experimental data: US5506102A (priority 1993, dated 1996)

Tests used:
human estrogen receptor = test: ER transcriptional activity on MMTV-ERE-LUC, CV-1 cells, ER co-expressed with PR-A; assay type: cell-based
Procedure: All values were normalized for transfection efficiency by simultaneous estimation of luciferase and β-galactocidase activities. The relative luciferase activity is calculated by dividing the normalized luciferase value at a given point by that obtained in the absence of transfected receptor or ligand. Data shown represent the mean +/- the average deviation from the mean of triplicate estimations.
Experimental protocols and data calculation are as described in FIG. 11. The experiment detailed above is representative of independent assays (N>3). Data shown represent the mean +/- the average deviation from the mean of triplicate estimations.
Vegeto et al., supra. Cells were plated into 96-well tissue culture plates. The vector DNA was introduced into the CV-1 cells using calcium phosphate coprecipitation as described herein. More specifically, 20 μg of DNA/ml of transfection buffer were used in each transfection. Each transfection mix included 0.5 μg of pRST7hER, 9.5 μg of MMTV-ERE-LUC, 5 μg of pCH110, (which contains the gene for β-galactosidase) as an internal control and 5 μg of PGEM4 DNA as a carrier. Depending on the experiment, 0.1 μg pSVhPR-A or pSVhPR-B and an amount of pSVXV2neo (Dr. Bert O'Malley, Baylor College of Medicine) to bring the total amount of DNA to 20 μg was added. The concentration of pXVhPR-A vector chosen was determined by performing the experiment at several different concentrations of vector, and then using that concentration that was optimal for transcriptional readout. The concentration of pSVhPR-B vector was chosen based upon the amount required to give an identical amount of immunoreactive PR-A and PR-B. After transfections using a Biomek 1000 automated laboratory workstation, the cells were incubated with the precipitate for 6 hours. Cells were washed with PBS and incubated for 40 hours with or without hormones as indicated. Cell extracts were prepared as previously described herein and assayed for luciferase (LUC) and β-galactosidase activities. The Normalized LUC activity was calculated by dividing the raw luciferase (×10^4) units for each point by the β-galactosidase activity [(OD415 nm ×10^5)/time min.] at that point.

ER = ER transcriptional activity on MMTV-ERE-LUC in HepG2 and HS578T cells; assay type: cell-based; conditions: data not shown
[1] = target: T1, glucocorticoid receptor (GR) (Homo sapiens, UniProt P04150); conditions: high concentrations, dexamethasone present, FIG. 8B
T1 sequence (P04150 1-777): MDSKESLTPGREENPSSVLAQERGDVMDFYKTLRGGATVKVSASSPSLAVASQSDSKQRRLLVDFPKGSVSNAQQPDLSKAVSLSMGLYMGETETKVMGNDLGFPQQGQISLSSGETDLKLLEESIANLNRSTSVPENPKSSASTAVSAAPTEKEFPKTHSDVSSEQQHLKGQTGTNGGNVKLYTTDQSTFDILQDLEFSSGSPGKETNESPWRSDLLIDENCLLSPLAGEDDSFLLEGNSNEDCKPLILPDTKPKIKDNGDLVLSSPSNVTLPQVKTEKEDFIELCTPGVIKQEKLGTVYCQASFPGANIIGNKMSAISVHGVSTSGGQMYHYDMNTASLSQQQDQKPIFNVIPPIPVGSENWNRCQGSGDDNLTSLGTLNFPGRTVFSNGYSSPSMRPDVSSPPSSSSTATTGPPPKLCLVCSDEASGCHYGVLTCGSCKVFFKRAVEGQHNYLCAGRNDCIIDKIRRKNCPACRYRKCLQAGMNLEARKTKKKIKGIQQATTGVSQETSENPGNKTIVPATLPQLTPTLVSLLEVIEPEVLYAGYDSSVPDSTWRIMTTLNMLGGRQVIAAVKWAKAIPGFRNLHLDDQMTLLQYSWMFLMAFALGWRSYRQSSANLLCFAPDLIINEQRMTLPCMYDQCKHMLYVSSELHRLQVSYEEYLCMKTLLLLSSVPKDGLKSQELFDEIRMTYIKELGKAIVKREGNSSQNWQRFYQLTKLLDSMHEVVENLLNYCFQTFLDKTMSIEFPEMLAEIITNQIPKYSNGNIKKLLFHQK
Procedure: (§1) Cells were seeded in 12-well, 96-well or 10 cm tissue culture plates. […] 20 μg of DNA/ml of transfection buffer were used in each transfection reaction. In this mix, the concentration of the luciferase plasmids and that of the internal control plasmid pCH110 (Pharmacia, Inc.), which contains the gene for the β-galactosidase enzyme, remained constant ([…] of each plasmid DNA), while the receptor plasmid concentration varied as indicated for each experiment. Different amounts of receptor parental plasmid, pSV2-neo (Dr. Bert O'Malley, Baylor College of Medicine, Houston, Tex.) was included to keep constant the total amount of the SV40 enhancer vectors. pGEM4 plasmid DNA (Promega Biotech, Madison, Wis.) was added to balance the total DNA concentration to 20 g/reaction. For the 96-well plate experiments, transfections were performed on a Biomek 1000 Automated Laboratory Workstation (Beckman Instruments, Fullerton, Calif.).
(§2) Cells were seeded 24 hours prior to transfection in the fiat-bottom tissue culture plates ([…]) in phenol red-free DMEM containing 10% FCS. […] Using calcium phosphate co-precipitation, DNA solution was added dropwise with vortexing into an equal volume of 2X HBS pH 6.9 (280 mM NaCl. 50 mM HEPES, 1.5 mM Na2 HPO4) and precipitates were allowed to form for 20 minutes. Cells were transfected ( […] of DNA mix/well) for 6 hours and then washed with phosphate-bufferedsaline (PBS) to remove the precipitate. Cells were incubated for an additional 24 hours in phenol red-free medium containing 10% charcoal-treated FCS, with or without hormones as indicated in the text. Cell extracts were prepared as described by Berger et al., Supra, and assayed for luciferase and β-galactosidase activities. All determinations were performed in triplicates in at least two independent experiments, and were normalized for transfection efficiency by using β-galactosidase as an internal control.

[2] = test system: glucocorticoid receptor (GR); test: GR transcriptional activity on MMTV-LUC, CV-1 cells, GR co-expressed with PR-B; assay type: cell-based; conditions: progesterone and dexamethasone, FIG. 5B
Procedure: as §1
Cells were seeded 24 hours prior to transfection in the fiat-bottom tissue culture plates ([…]) in phenol red-free DMEM containing 10% FCS. […] Using calcium phosphate co-precipitation, DNA solution was added dropwise with vortexing into an equal volume of 2X HBS pH 6.9 (280 mM NaCl. 50 mM HEPES, 1.5 mM Na2 HPO4) and precipitates were allowed to form for 20 minutes. […]

[3] = test system: glucocorticoid receptor (GR); test: GR transcriptional activity on MMTV-LUC, CV-1 cells, GR co-expressed with PR-A; assay type: cell-based; conditions: 1440 min
Procedure: as §1, §2

IC50 (human estrogen receptor; 10^-7 M 17-β-estradiol, read-out: half maximal inhibition (IC50) of ER in the presence of hPR-A) [pM] | direct inhibition of GR function [1] | Structure (SMILES) | efficacy compared to the pure anti-estrogen ICI-164,384 (human estrogen receptor; PR-A co-expressed, 100% = 10^-7 M 17-β-estradiol + 10^-6 M ICI-164,384, FIG. 12) | anti-estrogenic activity (ER; HS578T cells) | anti-estrogenic activity (ER; HepG2 cells) | effect of PR-B co-expression on GR function [2] | maximal inhibition of ER activation by 17-β-estradiol (human estrogen receptor; 10 nM progesterone, hPR-A co-expressed, 10^-7 M 17β-estradiol, FIG. 11C) [%] | reduction in GR activity ([3]; GR and PR-A, 10^-9 M progesterone, 5×10^-8 M dexamethasone, FIG. 6, 0.001 µM) [%] | GR activity, of induced control levels ([3]; presence of progesterone and dexamethasone, PR-A co-expressed, FIG. 5A, 0.1 µM) [%]
500 | directly inhibited GR function | CC#C[C@]1(O)CC[C@H]2[C@@H]3CCC4=CC(=O)CCC4=C3[C@@H](c3ccc(C(C)=O)cc3)C[C@@]21C [ZK112993] | greater than 80% | both anti-progestins functioned as anti-estrogens | neither anti-progestin exhibited any anti-estrogenic activity | – | – | – | –
– | – | CC(=O)[C@H]1CC[C@H]2[C@@H]3CCC4=CC(=O)CC[C@]4(C)[C@H]3CC[C@]12C [progesterone] | – | – | – | minimal effects on GR function | 55 | 50 | 2
